Experimental data from BindingDB's records for doi:10.1021/cb900264w (The Weizmann Institute of Science, 2010).

Tests used:
[1] = target: T1, Amine oxidase [flavin-containing] B (Rattus norvegicus, UniProt P19643); assay: Enzyme Inhibition Assay; settings: pH 7.4; 37 °C
T1 sequence (P19643 whole entry): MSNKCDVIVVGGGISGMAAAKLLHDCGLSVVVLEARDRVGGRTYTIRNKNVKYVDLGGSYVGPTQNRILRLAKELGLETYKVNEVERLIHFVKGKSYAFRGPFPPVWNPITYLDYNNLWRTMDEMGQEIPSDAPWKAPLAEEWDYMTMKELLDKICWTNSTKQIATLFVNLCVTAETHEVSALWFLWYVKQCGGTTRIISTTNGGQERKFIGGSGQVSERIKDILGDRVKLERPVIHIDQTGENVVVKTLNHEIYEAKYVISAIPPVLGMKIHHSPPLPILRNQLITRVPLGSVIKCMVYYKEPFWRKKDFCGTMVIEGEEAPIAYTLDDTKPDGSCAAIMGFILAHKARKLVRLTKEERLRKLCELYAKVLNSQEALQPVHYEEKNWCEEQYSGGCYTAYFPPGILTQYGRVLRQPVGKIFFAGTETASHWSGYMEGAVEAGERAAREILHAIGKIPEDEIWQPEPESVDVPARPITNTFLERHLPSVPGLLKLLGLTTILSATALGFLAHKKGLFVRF
Description: (§1) Inhibition of MAO activity in rat brain homogenates.

[2] = target: T2, Amine oxidase [flavin-containing] A (Rattus norvegicus, UniProt P21396); assay: Enzyme Inhibition Assay; settings: pH 7.4; 37 °C
T2 sequence (P21396 whole entry): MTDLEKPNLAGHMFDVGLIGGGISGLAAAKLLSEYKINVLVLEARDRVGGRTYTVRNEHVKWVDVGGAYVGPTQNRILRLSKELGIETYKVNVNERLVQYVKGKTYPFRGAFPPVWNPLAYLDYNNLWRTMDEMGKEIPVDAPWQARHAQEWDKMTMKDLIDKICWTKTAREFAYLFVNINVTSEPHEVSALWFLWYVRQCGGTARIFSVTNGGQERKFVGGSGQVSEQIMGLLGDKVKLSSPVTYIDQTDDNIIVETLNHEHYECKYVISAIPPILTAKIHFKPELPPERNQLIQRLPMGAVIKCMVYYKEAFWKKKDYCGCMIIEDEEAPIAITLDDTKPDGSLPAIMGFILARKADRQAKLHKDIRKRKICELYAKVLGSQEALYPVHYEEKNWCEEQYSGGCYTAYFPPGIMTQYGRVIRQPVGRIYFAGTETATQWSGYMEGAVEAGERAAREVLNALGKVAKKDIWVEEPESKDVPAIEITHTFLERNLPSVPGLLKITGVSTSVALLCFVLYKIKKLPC
Description: as §1

Row | SMILES | IC50 [1] [nM] | IC50 [2] [nM]
1 | C#CCN(C)Cc1ccc(O)c2ncccc12 [Chelator, M30] | 37 | –
2 | C#CCN(C)Cc1ccc(OC(=O)N(C)C)c2ncccc12 [Prochelators, 2] | 7900 | 7.7
3 | C#CCN(C)Cc1ccc(OC(=O)N(C)CC)c2ncccc12 [Prochelators, 3] | – | 9.6
